The test system of assay [1] is TPA induced erythema of mouse ear. The conditions noted are these: application of a 100 pg/ml solution; cited from earlier work.
Assay [2] relates to phenylbenzoquinone writhing. The conditions noted are these: mice; versus aspirin; cited from earlier work.
For another assay, the target named is cannabinoid receptor CB2 (Homo sapiens, UniProt P34972). The conditions noted are these: cited from earlier work.
The test system of assay [3] is swelling, pain, TNF-alpha. As to the kind of experiment: biological activity assays of FIGS. 1-4 (swelling, pain, TNF-alpha, weight bearing). The format is in vivo, mice. The conditions noted are these: summary of FIGS. 1-4; varied doses, compared to CBD/CBG. How it is done: After an additional 90 minutes, the mice were decapitated, and trunk blood was collected for determination of TNF-α levels. […]
TNF-α determination assay: TNF-α (pg/ml) in cell culture supernatants or in mouse blood plasma was determined by the “sandwich” ELISA technique. ELISA reagents were used according to the manufacturer's protocol (R & D Systems).

The structures appear in SMILES notation.

Chain of cannabinoid receptor CB2 (P34972 whole entry): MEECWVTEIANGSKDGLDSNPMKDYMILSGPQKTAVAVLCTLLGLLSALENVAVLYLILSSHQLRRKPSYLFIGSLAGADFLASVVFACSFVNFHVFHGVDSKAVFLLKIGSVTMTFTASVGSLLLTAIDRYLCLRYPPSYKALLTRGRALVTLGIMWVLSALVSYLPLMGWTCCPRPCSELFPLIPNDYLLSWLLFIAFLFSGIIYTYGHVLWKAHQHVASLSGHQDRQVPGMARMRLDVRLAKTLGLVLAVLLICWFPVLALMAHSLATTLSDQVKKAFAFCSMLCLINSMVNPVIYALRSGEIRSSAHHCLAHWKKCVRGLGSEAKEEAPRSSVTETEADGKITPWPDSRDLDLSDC

For `C=C(C)[C@@H]1CCC(C)=C[C@H]1c1c(O)cc(CCCCC)cc1O` [CBD, Cannabidiol], the “inhibition of the inflammation response” value in assay [1] is 92%. The “analgesic potency compared to aspirin” value in assay [2] is recorded as “much more potent than aspirin”. Further, the “binding to CB2” value at cannabinoid receptor CB2 was “does not bind”.
Turning to `C=C(C)[C@@H]1CCC(C)=C[C@H]1c1c(O)cc(CCCCC)c(C)c1O` [HUM-216, (1′R,2′R)-3,5′-dimethyl-4-pentyl-2′-(prop-1-en-2-yl)-1′,2′,3′,4′-tetrahydro-[1,1′-biphenyl]-2,6-diol], the anti-inflammatory activity entry in assay [3] was “notable anti-inflammatory activity”.
As to `CCCCCc1cc(O)c([C@@H]2C=C(C)CC[C@H]2C(C)C)c(O)c1C` [HUM-217, (1′S,2′S)-2′-isopropyl-3,5′-dimethyl-4-pentyl-1′,2′,3′,4′-tetrahydro-[1,1′-biphenyl]-2,6-diol], the anti-inflammatory activity result in assay [3] was “notable anti-inflammatory activity”.
Same read-out and setting: the same measure for `CCCCCc1cc(O)c(C/C=C(\C)CCC=C(C)C)c(O)c1C` [HUM-218, (E)-2-(3,7-dimethylocta-2,6-dien-1-yl)-4-methyl-5-pentylbenzene-1,3-diol]: “notable anti-inflammatory activity”.
On the same count and under the same terms, with `CCCCCCC(C)(C)c1cc(O)c(C/C=C(\C)CCC=C(C)C)c(OC)c1` [HUM-223, (E)-2-(3,7-dimethylocta-2,6-dien-1-yl)-3-methoxy-5-(2-methyloctan-2-yl)phenol] the entry was “notable anti-inflammatory activity”.

The values above are taken from patent US20240116883A1, “CANNABINOID DERIVATIVES AND THEIR USE THE TREATMENT OF INFLAMMATION AND/OR PAIN AND/OR OBESITY” (Yissum Research Development Company of The Hebrew …, priority 2020, published 2024).
